Data as given in US11078215B2, “Crystalline forms of lorlatinib maleate” (Pfizer Inc., priority 2016, dated 2021).
Counter-ions that a name gives are not always drawn.

Tests used:
[1] = Physical stability of Form 1 drug product vs. acetic acid solvate drug product; conditions: drug product
From the text: The physical stabilities of Form 1 and lorlatinib acetic acid solvate as drug product were investigated under a variety of conditions.

[2] = Slurry experiments, thermodynamic stability of lorlatinib maleate hydrate (Form 2) in a variety of solvent systems; assay type: physicochemical
Method: The thermodynamic stability of Form 2 was further assessed in variety of solvent systems at temperatures of 5° C. to 40° C. as shown in Table 11. Suspensions of Form 2 were prepared under the indicated conditions and equilibrated for 2 weeks. Resultant solids were analyzed by PXRD. […] Formation of new materials in ethanol and methanol is believed to be a solvated form.

**Q.** Which “impurity (solid phase impurity), physical stability of drug product” value (“impurity (solid phase impurity)” for short) ([1]; 50° C./75% RH, 2 weeks) does the source give for `CC(=O)O.C[C@H]1Oc2cc(cnc2N)-c2c(nn(C)c2C#N)CN(C)C(=O)c2ccc(F)cc21` [lorlatinib acetic acid solvate, reference compound] here?
**A.** ~30% impurity

**Q.** And the “impurity (solid phase impurity)” value ([1]; 70° C./10% RH, 3 weeks)?
**A.** ~80% impurity

**Q.** What about the “impurity (solid phase impurity)” value ([1]; 70° C./40% RH, 2 weeks) of the same compound?
**A.** ~80% impurity

**Q.** What about the “impurity (solid phase impurity)” value ([1]; 70° C./75% RH, 1 week) of the same compound?
**A.** ~80% impurity

**Q.** With `C[C@H]1Oc2cc(cnc2N)-c2c(nn(C)c2C#N)CN(C)C(=O)c2ccc(F)cc21` [lorlatinib maleate hydrate (Form 2), (10R)-7-amino-12-fluoro-2,10,16-trimethyl-15-oxo-10,15,16,17-tetrahydro-2H-8,4-(metheno)pyrazolo[4,3-h][2,5,11]benzoxadiazacyclotetradecine-3-carbonitrile (PF-06463922) Maleate Hydrate (Form 2)] as the compound, how does the “Slurry output, solid form by PXRD” value ([2]; 1,4-dioxane, Aw 0, 5° C., 2 weeks) read?
**A.** Form 2

**Q.** What about the “Slurry output, solid form by PXRD” value ([2]; 1,4-dioxane, Aw 0, 40° C., 2 weeks) of the same compound?
**A.** Form 2

**Q.** What about the “Slurry output, solid form by PXRD” value ([2]; 1,4-dioxane, Aw 0, RT, 2 weeks) of the same compound?
**A.** Form 2

**Q.** What about the “Slurry output, solid form by PXRD” value ([2]; EtOAc, Aw 0, 5° C., 2 weeks) of the same compound?
**A.** Form 2

**Q.** And the “Slurry output, solid form by PXRD” value ([2]; EtOAc, Aw 0, 40° C., 2 weeks)?
**A.** Form 2

**Q.** What about the “Slurry output, solid form by PXRD” value ([2]; EtOAc, Aw 0, RT, 2 weeks) of the same compound?
**A.** Form 2

**Q.** What about the “Slurry output, solid form by PXRD” value ([2]; EtOAc/water, Aw 0.1, 5° C., 2 weeks) of the same compound?
**A.** Form 2

**Q.** And the “Slurry output, solid form by PXRD” value ([2]; EtOAc/water, Aw 0.1, 40° C., 2 weeks)?
**A.** Form 2

**Q.** And the “Slurry output, solid form by PXRD” value ([2]; EtOAc/water, Aw 0.1, RT, 2 weeks)?
**A.** Form 2

**Q.** And the “Slurry output, solid form by PXRD” value ([2]; EtOAc/water, Aw 0.3, 5° C., 2 weeks)?
**A.** Form 2

**Q.** What about the “Slurry output, solid form by PXRD” value ([2]; EtOAc/water, Aw 0.3, 40° C., 2 weeks) of the same compound?
**A.** Form 2

**Q.** What about the “Slurry output, solid form by PXRD” value ([2]; EtOAc/water, Aw 0.3, RT, 2 weeks) of the same compound?
**A.** Form 2

**Q.** And the “Slurry output, solid form by PXRD” value ([2]; EtOAc/water, Aw 0.75, 5° C., 2 weeks)?
**A.** Form 2

**Q.** What about the “Slurry output, solid form by PXRD” value ([2]; EtOAc/water, Aw 0.75, 40° C., 2 weeks) of the same compound?
**A.** Form 2

**Q.** What about the “Slurry output, solid form by PXRD” value ([2]; EtOAc/water, Aw 0.75, RT, 2 weeks) of the same compound?
**A.** Form 2

**Q.** What about the “Slurry output, solid form by PXRD” value ([2]; Ethanol, Aw 0, 5° C., 2 weeks) of the same compound?
**A.** Form 2

**Q.** And the “Slurry output, solid form by PXRD” value ([2]; Ethanol, Aw 0, 40° C., 2 weeks)?
**A.** solvate

**Q.** What about the “Slurry output, solid form by PXRD” value ([2]; MeOAc, Aw 0, 5° C., 2 weeks) of the same compound?
**A.** Form 2

**Q.** What about the “Slurry output, solid form by PXRD” value ([2]; MeOAc, Aw 0, 40° C., 2 weeks) of the same compound?
**A.** Form 2

**Q.** And the “Slurry output, solid form by PXRD” value ([2]; MeOAc, Aw 0, RT, 2 weeks)?
**A.** Form 2

**Q.** And the “Slurry output, solid form by PXRD” value ([2]; TFE, Aw 0, 5° C., 2 weeks)?
**A.** Form 2

**Q.** And the “Slurry output, solid form by PXRD” value ([2]; TFE, Aw 0, 40° C., 2 weeks)?
**A.** amorphous

**Q.** What about the “Slurry output, solid form by PXRD” value ([2]; TFE, Aw 0, RT, 2 weeks) of the same compound?
**A.** Form 2

**Q.** What about the “Slurry output, solid form by PXRD” value ([2]; acetone, Aw 0, 5° C., 2 weeks) of the same compound?
**A.** Form 2

**Q.** And the “Slurry output, solid form by PXRD” value ([2]; acetone, Aw 0, 40° C., 2 weeks)?
**A.** Form 2

**Q.** What about the “Slurry output, solid form by PXRD” value ([2]; acetone, Aw 0, RT, 2 weeks) of the same compound?
**A.** Form 2

**Q.** And the “Slurry output, solid form by PXRD” value ([2]; acetone/water, Aw 0.1, 5° C., 2 weeks)?
**A.** Form 2

**Q.** And the “Slurry output, solid form by PXRD” value ([2]; acetone/water, Aw 0.1, 40° C., 2 weeks)?
**A.** Form 2

**Q.** What about the “Slurry output, solid form by PXRD” value ([2]; acetone/water, Aw 0.1, RT, 2 weeks) of the same compound?
**A.** Form 2

**Q.** What about the “Slurry output, solid form by PXRD” value ([2]; acetone/water, Aw 0.3, 5° C., 2 weeks) of the same compound?
**A.** Form 2

**Q.** And the “Slurry output, solid form by PXRD” value ([2]; acetone/water, Aw 0.3, 40° C., 2 weeks)?
**A.** Form 2

**Q.** And the “Slurry output, solid form by PXRD” value ([2]; acetone/water, Aw 0.3, RT, 2 weeks)?
**A.** Form 2

**Q.** And the “Slurry output, solid form by PXRD” value ([2]; acetone/water, Aw 0.75, 5° C., 2 weeks)?
**A.** Form 2

**Q.** What about the “Slurry output, solid form by PXRD” value ([2]; acetone/water, Aw 0.75, 40° C., 2 weeks) of the same compound?
**A.** Form 2

**Q.** What about the “Slurry output, solid form by PXRD” value ([2]; acetone/water, Aw 0.75, RT, 2 weeks) of the same compound?
**A.** Form 2

**Q.** And the “Slurry output, solid form by PXRD” value ([2]; acetone/water, Aw 0.9, 5° C., 2 weeks)?
**A.** Form 2

**Q.** And the “Slurry output, solid form by PXRD” value ([2]; acetone/water, Aw 0.9, RT, 2 weeks)?
**A.** Form 2

**Q.** What about the “Slurry output, solid form by PXRD” value ([2]; acetonitrile, Aw 0, 5° C., 2 weeks) of the same compound?
**A.** Form 2

**Q.** And the “Slurry output, solid form by PXRD” value ([2]; acetonitrile, Aw 0, 40° C., 2 weeks)?
**A.** Form 2

**Q.** What about the “Slurry output, solid form by PXRD” value ([2]; acetonitrile, Aw 0, RT, 2 weeks) of the same compound?
**A.** Form 2

**Q.** And the “Slurry output, solid form by PXRD” value ([2]; methanol, Aw 0, 5° C., 2 weeks)?
**A.** Form 2

**Q.** What about the “Slurry output, solid form by PXRD” value ([2]; methanol/water, Aw 0.1, 5° C., 2 weeks) of the same compound?
**A.** Form 2

**Q.** And the “Slurry output, solid form by PXRD” value ([2]; methanol/water, Aw 0.1, 40° C., 2 weeks)?
**A.** solvate

**Q.** And the “Slurry output, solid form by PXRD” value ([2]; methanol/water, Aw 0.1, RT, 2 weeks)?
**A.** Form 2

**Q.** And the “Slurry output, solid form by PXRD” value ([2]; methanol/water, Aw 0.3, 5° C., 2 weeks)?
**A.** Form 2

**Q.** What about the “Slurry output, solid form by PXRD” value ([2]; methanol/water, Aw 0.3, 40° C., 2 weeks) of the same compound?
**A.** solvate

**Q.** What about the “Slurry output, solid form by PXRD” value ([2]; methanol/water, Aw 0.3, RT, 2 weeks) of the same compound?
**A.** Form 2

**Q.** What about the “Slurry output, solid form by PXRD” value ([2]; methanol/water, Aw 0.75, 5° C., 2 weeks) of the same compound?
**A.** Form 2

**Q.** And the “Slurry output, solid form by PXRD” value ([2]; methanol/water, Aw 0.75, 40° C., 2 weeks)?
**A.** Form 2

**Q.** What about the “Slurry output, solid form by PXRD” value ([2]; methanol/water, Aw 0.75, RT, 2 weeks) of the same compound?
**A.** Form 2

**Q.** And the “Conversion to Form 1 in slurry (summary)” value ([2]; variety of solvent systems, 5° C. to 40° C., 2 weeks)?
**A.** No conversion to Form 1 was detected

**Q.** What about the “Thermodynamic stability (summary)” value ([2]; wide range of water activities and solvent conditions) of the same compound?
**A.** thermodynamically stable
